Tests used:
Hep-G2 (liver) = assay: Human tumor cell line panel, sulforhodamine B; format: cell-based; conditions: HepG2, 48 hours, mean ± sd
EFGR = EFGR (Homo sapiens, UniProt P00533); assay: Kinase selectivity panel; format: biochemical; conditions: read-out: percent of control activity, EFGR
Description: (§1) A common problem with attempts to develop protein kinase inhibitors is the lack of selectivity toward the target kinase since the majority of these compounds interact with nucleotide-binding domains that are highly conserved among kinases. […] The compound was tested at a single concentration of 50 μM.

IKKα = IKKα (Homo sapiens, UniProt O15111); assay: Kinase selectivity panel; format: biochemical; conditions: read-out: percent of control activity, IKKα
Description: as §1

PKBα = PKBα (Homo sapiens, UniProt P31749); assay: Kinase selectivity panel; format: biochemical; conditions: read-out: percent of control activity, PKBα
Description: as §1

CHK1 = CHK1 (Homo sapiens, UniProt O14757); assay: Kinase selectivity panel; format: biochemical; conditions: read-out: percent of control activity, CHK1
Description: as §1

PDK1 = PDK1 (Homo sapiens, UniProt O15530); assay: Kinase selectivity panel; format: biochemical; conditions: read-out: percent of control activity, PDK1
Description: as §1

MEK kinase 1 = assay: Kinase selectivity panel; format: biochemical; conditions: 50 μM
Description: as §1

Abl = Abl (Homo sapiens, UniProt P00519); assay: Kinase selectivity panel; format: biochemical; conditions: read-out: percent of control activity, Abl
Description: as §1

Aurora-A = Aurora-A (Homo sapiens, UniProt O14965); assay: Kinase selectivity panel; format: biochemical; conditions: read-out: percent of control activity, Aurora-A
Description: as §1

Fyn = Fyn (Homo sapiens, UniProt P06241); assay: Kinase selectivity panel; format: biochemical; conditions: read-out: percent of control activity, Fyn
Description: as §1

P38 MAP kinase 1 = P38 MAP kinase 1 (Homo sapiens, UniProt Q16539); assay: Kinase selectivity panel; format: biochemical; conditions: read-out: percent of control activity, P38 MAP kinase 1
Description: as §1

cSrc = cSrc (Homo sapiens, UniProt P12931); assay: Kinase selectivity panel; format: biochemical; conditions: read-out: percent of control activity, cSrc
Description: as §1

CDK1/cyclinB = CDK1/cyclinB (Homo sapiens, UniProt P06493); assay: Kinase selectivity panel; format: biochemical; conditions: read-out: percent of control activity, CDK1/cyclinB
Description: as §1

PKBγ = PKBγ (Homo sapiens, UniProt Q9Y243); assay: Kinase selectivity panel; format: biochemical; conditions: read-out: percent of control activity, PKBγ
Description: as §1

CDK2/cyclinE = CDK2/cyclinE (Homo sapiens, UniProt P24941); assay: Kinase selectivity panel; format: biochemical; conditions: read-out: percent of control activity, CDK2/cyclinE
Description: as §1

cRaf = cRaf (Homo sapiens, UniProt P04049); assay: Kinase selectivity panel; format: biochemical; conditions: read-out: percent of control activity, cRaf
Description: as §1

Ca^2+/calmodulin PK IV = Ca^2+/calmodulin PK IV (Homo sapiens, UniProt Q16566); assay: Kinase selectivity panel; format: biochemical; conditions: read-out: percent of control activity, Ca^2+/calmodulin PK IV
Description: as §1

PKA = PKA (Homo sapiens, UniProt P17612); assay: Kinase selectivity panel; format: biochemical; conditions: read-out: percent of control activity, PKA
Description: as §1

Protein kinase C ε = Protein kinase C ε (Homo sapiens, UniProt Q02156); assay: Kinase selectivity panel; format: biochemical; conditions: read-out: percent of control activity, Protein kinase C ε
Description: as §1

Protein kinase C α = Protein kinase C α (Homo sapiens, UniProt P17252); assay: Kinase selectivity panel; format: biochemical; conditions: read-out: percent of control activity, Protein kinase C α
Description: as §1

P38 MAP kinase 2 = P38 MAP kinase 2 (Homo sapiens, UniProt Q15759); assay: Kinase selectivity panel; format: biochemical; conditions: read-out: percent of control activity, P38 MAP kinase 2
Description: as §1

A-498 (kidney) = assay: Human tumor cell line panel, sulforhodamine B; format: cell-based; conditions: A498, 48 hours, mean ± sd
HT-29 (colon) = assay: Human tumor cell line panel, sulforhodamine B; format: cell-based; conditions: 48 hours, mean ± sd
[1] = system: C57BL/6 mice, DSS model of IBD; assay: Acute DSS-colitis model; format: in vivo, mouse; conditions: 2% DSS, 50 mg/kg oral daily
Description: We have conducted experiments with SK inhibitors using the dextran sulfate sodium (DSS) model of IBD. In these experiments, male C57BL/6 mice were provided with standard rodent diet and water ad libitum. After their acclimation, the animals were randomly divided into groups of 5 or 6 for DSS (40,000 MW from ICN Biomedicals, Inc., Aurora, Ohio)—and drug-treatment. The SK inhibitors were dissolved in PEG400, and given once daily by oral gavage in a volume of 0.1 mL per dose. Dipentum, an FDA-approved anti-colitis drug whose active ingredient, olsalazine, is converted to 5-aminosalicylic acid in vivo, was used as a positive control. The mice were given normal drinking water or 2% DSS and treated orally with an SK inhibitor or Dipentum at a dose of 50 mk/kg daily. The body weight of each animal was measured each day, and the Disease Activity Index (DAI) was scored for each animal on Days 4-6. On Day 6, the animals were sacrificed by cervical dislocation and the entire colon was removed and measured to the nearest 0.1 cm. Portions of the colons were then fixed, sectioned and their histologies were assessed on a blinded basis to determine their Histology Score. Other portions of the colons were used for biochemical analyses of inflammation markers.

Fyn, sequence (P06241 whole entry, species assumed): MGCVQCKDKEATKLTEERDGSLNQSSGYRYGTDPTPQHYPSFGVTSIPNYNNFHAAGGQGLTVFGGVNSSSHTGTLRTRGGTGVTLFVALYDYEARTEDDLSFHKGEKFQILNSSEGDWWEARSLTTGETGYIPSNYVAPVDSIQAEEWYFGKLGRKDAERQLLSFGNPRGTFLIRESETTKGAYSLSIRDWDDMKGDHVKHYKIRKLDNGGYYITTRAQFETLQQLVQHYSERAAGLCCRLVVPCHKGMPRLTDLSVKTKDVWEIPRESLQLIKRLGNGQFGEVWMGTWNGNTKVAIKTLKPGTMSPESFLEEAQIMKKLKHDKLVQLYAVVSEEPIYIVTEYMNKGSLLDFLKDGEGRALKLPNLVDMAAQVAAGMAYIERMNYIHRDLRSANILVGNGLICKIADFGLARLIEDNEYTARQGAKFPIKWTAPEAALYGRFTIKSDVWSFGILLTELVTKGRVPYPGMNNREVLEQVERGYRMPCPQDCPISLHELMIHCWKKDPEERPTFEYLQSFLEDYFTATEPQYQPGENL
IKKα, sequence (O15111 whole entry, species assumed): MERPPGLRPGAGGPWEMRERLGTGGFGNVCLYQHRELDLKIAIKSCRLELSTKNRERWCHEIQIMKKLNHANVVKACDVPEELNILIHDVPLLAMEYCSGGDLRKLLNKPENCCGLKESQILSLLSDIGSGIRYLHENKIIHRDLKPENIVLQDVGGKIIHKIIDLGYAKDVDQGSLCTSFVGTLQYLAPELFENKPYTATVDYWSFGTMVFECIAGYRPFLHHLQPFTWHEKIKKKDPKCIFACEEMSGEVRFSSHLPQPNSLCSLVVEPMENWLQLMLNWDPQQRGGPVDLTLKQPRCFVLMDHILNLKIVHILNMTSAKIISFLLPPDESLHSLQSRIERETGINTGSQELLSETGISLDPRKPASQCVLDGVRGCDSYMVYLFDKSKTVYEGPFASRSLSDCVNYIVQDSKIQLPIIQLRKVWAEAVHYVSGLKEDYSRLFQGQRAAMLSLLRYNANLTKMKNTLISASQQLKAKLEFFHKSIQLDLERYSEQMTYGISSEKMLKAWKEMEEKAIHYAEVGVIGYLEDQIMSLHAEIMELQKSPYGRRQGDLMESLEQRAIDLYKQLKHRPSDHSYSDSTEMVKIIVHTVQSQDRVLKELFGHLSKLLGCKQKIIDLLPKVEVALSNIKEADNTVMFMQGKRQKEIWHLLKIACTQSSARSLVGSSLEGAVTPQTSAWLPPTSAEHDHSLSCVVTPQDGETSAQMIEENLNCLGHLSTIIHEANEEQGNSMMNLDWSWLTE
CDK1/cyclinB, sequence (P06493 whole entry, species assumed): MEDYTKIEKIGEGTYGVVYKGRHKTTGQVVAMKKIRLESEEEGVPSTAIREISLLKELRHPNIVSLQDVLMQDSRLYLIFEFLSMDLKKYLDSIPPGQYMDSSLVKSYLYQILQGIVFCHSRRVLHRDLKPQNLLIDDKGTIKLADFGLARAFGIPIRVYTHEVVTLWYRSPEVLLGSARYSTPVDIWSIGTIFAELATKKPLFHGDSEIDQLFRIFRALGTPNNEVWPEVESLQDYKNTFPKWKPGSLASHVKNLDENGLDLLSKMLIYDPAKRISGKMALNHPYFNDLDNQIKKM
CDK1/cyclinB, sequence (P14635 whole entry partner, species assumed): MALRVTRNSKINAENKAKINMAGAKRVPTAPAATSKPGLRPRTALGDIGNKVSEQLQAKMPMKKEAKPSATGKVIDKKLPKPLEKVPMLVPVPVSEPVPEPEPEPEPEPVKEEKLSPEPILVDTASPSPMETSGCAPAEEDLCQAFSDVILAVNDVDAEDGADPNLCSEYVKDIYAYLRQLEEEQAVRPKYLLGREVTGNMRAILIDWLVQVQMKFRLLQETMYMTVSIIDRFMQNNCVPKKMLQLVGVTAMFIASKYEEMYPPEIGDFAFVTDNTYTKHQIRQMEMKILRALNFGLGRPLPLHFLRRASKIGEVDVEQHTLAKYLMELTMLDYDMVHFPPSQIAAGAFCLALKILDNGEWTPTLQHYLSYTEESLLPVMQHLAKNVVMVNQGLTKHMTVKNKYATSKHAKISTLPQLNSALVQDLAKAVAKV
PKBγ, sequence (Q9Y243 whole entry, species assumed): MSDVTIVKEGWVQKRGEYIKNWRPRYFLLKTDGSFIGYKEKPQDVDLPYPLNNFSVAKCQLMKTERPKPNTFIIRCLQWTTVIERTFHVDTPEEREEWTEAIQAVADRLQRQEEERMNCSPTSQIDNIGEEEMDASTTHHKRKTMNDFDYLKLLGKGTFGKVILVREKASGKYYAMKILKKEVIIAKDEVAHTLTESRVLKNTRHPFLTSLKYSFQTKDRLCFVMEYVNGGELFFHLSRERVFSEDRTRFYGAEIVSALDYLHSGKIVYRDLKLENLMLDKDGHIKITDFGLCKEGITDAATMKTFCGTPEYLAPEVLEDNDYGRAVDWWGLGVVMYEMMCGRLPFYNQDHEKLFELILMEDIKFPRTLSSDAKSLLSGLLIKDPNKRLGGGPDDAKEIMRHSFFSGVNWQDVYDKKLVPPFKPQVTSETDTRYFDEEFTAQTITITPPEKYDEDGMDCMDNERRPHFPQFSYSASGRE
cRaf, sequence (P04049 whole entry, species assumed): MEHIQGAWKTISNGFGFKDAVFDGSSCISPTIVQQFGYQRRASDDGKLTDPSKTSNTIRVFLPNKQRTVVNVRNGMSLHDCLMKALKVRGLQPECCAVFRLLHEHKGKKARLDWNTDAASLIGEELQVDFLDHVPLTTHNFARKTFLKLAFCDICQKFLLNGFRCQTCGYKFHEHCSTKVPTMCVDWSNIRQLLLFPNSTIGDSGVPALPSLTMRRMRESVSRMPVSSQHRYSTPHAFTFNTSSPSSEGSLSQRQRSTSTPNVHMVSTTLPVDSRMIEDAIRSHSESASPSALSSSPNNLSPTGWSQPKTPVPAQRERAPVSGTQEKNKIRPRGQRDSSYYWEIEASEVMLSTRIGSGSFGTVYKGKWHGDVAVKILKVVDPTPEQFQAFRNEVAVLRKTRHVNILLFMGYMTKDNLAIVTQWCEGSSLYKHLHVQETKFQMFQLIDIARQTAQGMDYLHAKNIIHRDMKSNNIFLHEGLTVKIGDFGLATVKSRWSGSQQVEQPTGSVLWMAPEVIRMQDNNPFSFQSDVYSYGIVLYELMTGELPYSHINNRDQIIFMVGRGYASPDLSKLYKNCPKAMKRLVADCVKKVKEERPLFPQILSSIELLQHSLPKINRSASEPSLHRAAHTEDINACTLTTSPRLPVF
Abl, sequence (P00519 whole entry, species assumed): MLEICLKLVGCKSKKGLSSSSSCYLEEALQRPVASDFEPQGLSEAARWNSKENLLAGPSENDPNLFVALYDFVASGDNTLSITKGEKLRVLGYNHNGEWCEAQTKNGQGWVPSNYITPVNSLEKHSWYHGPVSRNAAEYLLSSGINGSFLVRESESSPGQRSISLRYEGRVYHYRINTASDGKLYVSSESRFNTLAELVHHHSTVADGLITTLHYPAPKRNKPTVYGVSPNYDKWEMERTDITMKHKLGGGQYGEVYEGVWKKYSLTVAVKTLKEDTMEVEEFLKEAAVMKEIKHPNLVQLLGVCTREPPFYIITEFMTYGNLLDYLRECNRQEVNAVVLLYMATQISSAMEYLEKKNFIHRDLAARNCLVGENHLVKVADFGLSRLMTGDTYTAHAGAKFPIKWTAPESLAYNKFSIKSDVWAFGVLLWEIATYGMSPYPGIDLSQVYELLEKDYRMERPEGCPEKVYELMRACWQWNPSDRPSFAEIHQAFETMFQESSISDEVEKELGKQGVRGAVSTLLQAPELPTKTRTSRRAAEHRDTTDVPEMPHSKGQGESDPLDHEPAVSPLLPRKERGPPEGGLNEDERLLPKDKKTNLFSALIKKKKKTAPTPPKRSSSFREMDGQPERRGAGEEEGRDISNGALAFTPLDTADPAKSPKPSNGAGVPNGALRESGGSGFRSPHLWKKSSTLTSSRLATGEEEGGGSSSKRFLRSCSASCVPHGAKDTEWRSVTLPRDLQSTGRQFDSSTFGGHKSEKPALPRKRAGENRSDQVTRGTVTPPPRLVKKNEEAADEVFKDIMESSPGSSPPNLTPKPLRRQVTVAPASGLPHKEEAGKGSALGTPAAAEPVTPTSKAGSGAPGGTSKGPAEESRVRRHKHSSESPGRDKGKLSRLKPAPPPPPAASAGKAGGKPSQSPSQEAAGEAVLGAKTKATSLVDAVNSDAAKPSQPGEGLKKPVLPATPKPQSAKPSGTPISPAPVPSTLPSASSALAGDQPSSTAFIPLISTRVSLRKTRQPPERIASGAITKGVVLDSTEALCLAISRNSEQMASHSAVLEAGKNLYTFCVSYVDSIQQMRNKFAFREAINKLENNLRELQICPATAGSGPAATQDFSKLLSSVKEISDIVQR
CHK1, sequence (O14757 whole entry, species assumed): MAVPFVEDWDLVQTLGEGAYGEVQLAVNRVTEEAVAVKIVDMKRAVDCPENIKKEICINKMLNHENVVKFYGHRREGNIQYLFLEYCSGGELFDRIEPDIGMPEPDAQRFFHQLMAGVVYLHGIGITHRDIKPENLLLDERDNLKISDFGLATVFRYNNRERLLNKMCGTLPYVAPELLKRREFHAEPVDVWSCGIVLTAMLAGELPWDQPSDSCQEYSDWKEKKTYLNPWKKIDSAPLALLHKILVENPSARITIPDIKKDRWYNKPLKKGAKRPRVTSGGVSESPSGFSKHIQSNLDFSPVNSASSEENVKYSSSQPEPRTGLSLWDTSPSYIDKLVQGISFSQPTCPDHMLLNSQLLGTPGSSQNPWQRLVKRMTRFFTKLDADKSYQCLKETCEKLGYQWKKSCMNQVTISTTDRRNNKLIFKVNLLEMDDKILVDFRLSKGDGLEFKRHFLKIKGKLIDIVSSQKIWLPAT

O=C(NCc1ccncc1)C12CC3CC(C1)CC(c1ccc(Cl)cc1)(C3)C2 [Compound 62, 3-(4-Chloro-phenyl)-adamantane-1-carboxylic acid (pyridin-4-ylmethyl)-amide]
IC50 (Hep-G2 (liver)): 6 ± 2.6 µM | remaining activity at 50 µM (EFGR): 101 ± 3% | remaining activity at 50 µM (IKKα): 150 ± 16% | remaining activity at 50 µM (PKBα): 95 ± 2% | remaining activity at 50 µM (CHK1): 142 ± 13% | remaining activity at 50 µM (PDK1): 116 ± 3% | percent of control activity, MEK kinase 1 (MEK kinase 1): 104 ± 3% | remaining activity at 50 µM (Abl): 98% | remaining activity at 50 µM (Aurora-A): 103 ± 1% | remaining activity at 50 µM (Fyn): 84 ± 5% | remaining activity at 50 µM (P38 MAP kinase 1): 94 ± 2% | remaining activity at 50 µM (cSrc): 115 ± 3% | remaining activity at 50 µM (CDK1/cyclinB): 105 ± 1% | remaining activity at 50 µM (PKBγ): 105 ± 8% | remaining activity at 50 µM (CDK2/cyclinE): 106 ± 6% | remaining activity at 50 µM (cRaf): 96 ± 5% | remaining activity at 50 µM (Ca^2+/calmodulin PK IV): 81 ± 3% | remaining activity at 50 µM (PKA): 104 ± 5% | remaining activity at 50 µM (Protein kinase C ε): 101 ± 1% | remaining activity at 50 µM (Protein kinase C α): 86 ± 5% | remaining activity at 50 µM (P38 MAP kinase 2): 109 ± 5% | IC50 (A-498 (kidney)): 12.2 ± 6 µM | IC50 (HT-29 (colon)): 48.1 ± 7.6 µM | increase in colon myeloperoxidase (MPO) activity [1]: markedly attenuated | colon length ([1]; Day 6): intermediate length | histological examination of colon sections ([1]; Day 6): no or mild crypt damage, no or low levels of inflammatory cell infiltration and no edema in the submucosa | Disease Activity Index (intensity of IBD manifestations) ([1]; Days 4-6): reduced | colonic S1P levels vs DSS-alone ([1]; LC-MS/MS): markedly lower

Reference: patent US8557800B2, “Sphingosine kinase inhibitors” (Apogee Biotechnology Corporation, priority 2005, dated 2013)
